Peptide text beside a SMILES is read from it.
SMILES	logP
CNC(=O)Oc1ccccc1OC(C)C	1.52
CC(=O)Nc1cnc2ccccc2n1	1.53
CC(C)=C1C(=O)OC2CC(C)C3C=CC(=O)C3(C)C(O)C12 (stereo not drawn)	1.47
Cn1c(C=[N+](C)[O-])cnc1[N+](=O)[O-]	0.04
CN(C)c1ccc(NS(=O)(=O)c2ccc(N)cc2)cc1	1.57
Cc1ccc(C)o1	2.24
CCN(N=O)C(=O)Nc1ccccc1	2.25
O=[N+]([O-])c1cc[n+]([O-])c2ccc(Cl)cc12	1.41
O=C(COc1ccccc1)N1CCOCC1	0.74
CCOP(=S)(OCC)Oc1ccc(N)cc1	2.6
CCCCC(C)(C)c1ccc(C2CCCC(O)C2)c(O)c1 (stereo not drawn)	5.43
Cc1cccc2c(N)cnnc12	1.57
NC(=O)Nc1ccccc1F	0.88
CC(C)Oc1cccc(COC(=O)N(C)C)c1	3.03
CN(C)C(CSS(=O)(=O)c1ccccc1)CSS(=O)(=O)c1ccccc1	3.36
CC[C@H](C)C(=O)O[C@H]1C[C@H](O)C=C2C=C[C@H](C)[C@H](CC[C@@H]3C[C@@H](O)CC(=O)O3)[C@H]21	2.42
CC(=O)NCC(=O)N[C@@H](C)C(=O)N[C@H](C(N)=O)C(C)C (Ac-Gly-Ala-Val-NH2)	-1.56
CC1=C(O)OC2CC(C)C3C=CC(=O)C3(C)C(O)C12 (stereo not drawn)	1.13
OCCCc1nc2ccccc2[nH]1	1.25
COC(=O)CC#N	-0.47
C#CCC(O)(c1ccc(F)cc1)c1cccnc1 (stereo not drawn)	1.78
C[C@]12CCC(=O)C=C1CC[C@@H]1[C@@H]2[C@@H](O)C[C@@]2(C)[C@H]1CC[C@]2(O)C(=O)CO	1.61
O=C(C=Cc1ccco1)c1ccco1	2.34
O=c1nn[nH]c2ccccc12	0.83

SMILES	logP
COC(=O)Cn1cnc([N+](=O)[O-])n1	-0.38
Clc1cc(Cl)c(-c2c(Cl)ccc(Cl)c2Cl)cc1Cl	7.28
CC(=O)CC(C)=O	0.4
CC(=O)c1ccc(O)cc1	1.35
COc1ccc(OCC(=O)NNC(C)C)cc1	1.21
FC(F)(F)c1nc2c(Cl)cc(Cl)c(Cl)c2[nH]1	3.78
Oc1cccc(F)c1	1.93
c1ccc(Cc2ccncc2)cc1	2.62
O=S(=O)(O)c1ccc(O)c2ccccc12	-0.44
CCC(C)Cl (stereo not drawn)	2.33
c1ccc(Cc2ccccc2)cc1	4.14
Oc1ccccc1-c1ccccc1	3.09
CCNCCNCC	0.21
C#C	0.37
O=C(OCn1ncc2c(=O)[nH]cnc21)c1cccc(CN2CCOCC2)c1	1.13
CCCC(=NOCC)C1C(=O)CC2(CCC(C)CC2)OC1=O (stereo not drawn)	4.07
Cc1n[nH]c(C(=O)N2CCCCCC2)c1[N+](=O)[O-]	1.15
O=C(O)Cc1cccc(O)c1	0.85
OCC=Cc1ccccc1	1.95
CNCc1cccnc1	0.39
CN(C)c1ccc2c(c1)C(=O)N(S(C)(=O)=O)C2=O	1.65
S=C=S	1.94
CCNCc1cccnc1	0.76
Nc1nc2nn[nH]c2c(=O)[nH]1	-0.71

SMILES	logP
CCCCNC(=O)Cn1cnc([N+](=O)[O-])n1	0.89
CCCCC1(CC)C(=O)NC(=O)NC1=O	1.73
COC(=O)CC(=O)OC	-0.05
O=[N+]([O-])c1cc2ccccc2nn1	0.73
Cc1cccc(C2CNCCO2)c1 (stereo not drawn)	1.52
CC(C)Oc1ccc([N+](=O)[O-])cc1	2.8
CCN(CC)CC(O)c1ccccc1 (stereo not drawn)	2.02
CC(=O)Nc1ccccc1Cl	1.28
N=C(N)NCCCCc1ccccc1	1.59
CCC(C)=O	0.29
CNc1ccccc1	1.66
O=C(O)COc1ccccc1O	0.85
O=c1c2ccccc2sc2ccccc12	3.99
CCN(CC)C(=O)SCc1ccc(Cl)cc1	3.4
CNC(=O)ON=Cc1ccccc1	1.49
O=C(C=CC(=O)c1ccccc1)c1ccccc1	3.16
Cc1cc2ccccc2n1C	2.82
Clc1ccc(-c2ccccc2)cc1	4.61
CCN(CC)S(=O)(=O)c1ccc(OC)c(N)c1	1.7
CCOC(=O)C(=Cc1ccc(Cl)cc1Cl)C(C)=O	3.67
C=CCNCC=C	1.11
CC1(C)CCCC(C)(C)N1	2.15
COc1cccc(OCC(=O)O)c1	1.38
O=C(O)Cc1ccccc1Nc1ccccc1	3.49

SMILES	logP
CCCCC(=O)O[C@]1(C(=O)CO)CC[C@H]2[C@@H]3CCC4=CC(=O)CC[C@]4(C)[C@H]3[C@@H](O)C[C@@]21C	3.79
NC(=O)NCc1ccccc1	0.73
CON(C)C(=O)Nc1ccc(C(=O)c2ccccc2)cc1	2.86
COP1(=S)OCc2ccccc2O1 (stereo not drawn)	2.67
c1ccc2sccc2c1	3.12
CC(=NNC(=S)NNC(=S)N(C)C)c1ccccn1	1.25
C=C(Cl)Cl	2.13
CC(C)(C)CO	1.31
Nc1ccc(F)cc1F	1.54
CCCCCCOc1cccc(NC(=O)OCCN2CCCCC2)c1	5.51
O=C(O)C(Cl)(Cl)Cl	1.33
COc1ccc(OC(C)=O)cc1	1.54
CN(CC(F)(F)F)N=Nc1ccc(C(N)=O)cc1	1.86
C[C@@H]1C[C@H]2[C@@H]3CCC4=CC(=O)C=C[C@]4(C)[C@@]3(F)[C@@H](O)C[C@]2(C)[C@@]1(O)C(=O)CO	1.83
CCC(=O)OC1(C(=O)CCl)C(C)CC2C3CCC4=CC(=O)C=CC4(C)C3(F)C(=O)CC21C (stereo not drawn)	3.46
c1ccc(-n2cccn2)cc1	2.2
CC(=O)Oc1ccc(C(N)=O)cc1	0.27
CCCCCCCCC1(c2ccncc2)CCC(=O)NC1=O (stereo not drawn)	4.04
CC(=O)NCC(=O)N[C@@H](Cc1ccccc1)C(N)=O (Ac-Gly-Phe-NH2)	-0.56
OCCN1CCN(CCCC2c3ccc(F)cc3Sc3ccc(C(F)(F)F)cc32)CC1 (stereo not drawn)	4.47
CCCCCCC1CCC(=O)O1 (stereo not drawn)	2.72
CN1C(=O)c2ccccc2C1=O	1.31
NCCCc1cccnc1	0.44
CCCCCCOCc1cccc(NC(=O)OCCN2CCCCC2)c1	4.97

SMILES	logP
O=C(O)c1ccc(Br)cc1	2.86
CC(=O)Oc1cccc(C)c1	2.09
COc1c(Cl)ccc(Cl)c1C(=O)O	2.21
O=C(O)CNc1ccccc1	0.62
Cn1cccc1	1.21
COC(=O)C1=CCCN(C)C1	0.35
S=C=Nc1ccccc1	3.28
CC(C)CN	0.73
Cc1ccc(O)c2ncccc12	2.37
Nc1cccc(F)c1	1.3
N#C/C=C/c1ccccc1	1.96
CC(C)c1ccc(C(=O)O)cc1	3.4
COc1cc(S(C)=O)ccc1-c1cn2ccnc(OC)c2n1 (stereo not drawn)	1.49
O=C(O)COc1ccccc1F	1.39
COC(=O)C(Cc1ccccc1)NC(C)=O (stereo not drawn)	0.92
CC(CN(C)C)CN1c2ccccc2S(=O)(=O)c2ccccc21 (stereo not drawn)	2.51
COc1ccc(N2C(=O)CCC2=O)cc1	0.15
CC(C)OC(=O)c1ccccc1C(=O)OC(C)C	2.83
CCCCCOC(=O)NC	1.96
NCCCCc1ccncc1	0.86
CC(=O)Oc1c[nH]c2ccccc12	2.01
COC(=O)c1ccccc1Cl	2.38
CCCCCCCCn1cc(C)c(=O)[nH]c1=O	3.08
O=C(COc1ccccc1)Nc1ccccc1	2.73

SMILES	logP
CCCC(=O)Nc1ccccc1	2.05
CCc1nnc(NS(=O)(=O)c2ccc(N)cc2)s1	1.01
CN(C)C(=O)Nc1ccc(C(C)(C)C)cc1	3.1
CCCOP(=O)(OCCC)Oc1ccc(SC)cc1	3.67
CN(C)C1=CC(=O)C(N(C)C)=CC1=O	1.03
CN(C)c1ccc2cccnc2c1	2.71
CN(C(N)=O)c1ccccc1	0.42
N#CSCc1ccccc1	1.99
Oc1cc(Cl)c(Cl)c(Cl)c1Cl	4.21
Oc1cc(Cl)ccc1Cl	3.06
O=[N+]([O-])CCO	-0.42
O=Cc1cccnc1	0.29
CCCC(CC(C)=O)C(=O)O (stereo not drawn)	1.31
Cc1ccc(OCC(=O)O)cc1	1.86
COc1ccc2nc(N)[nH]c2c1	0.57
COc1ccc(CC(C)N)cc1 (stereo not drawn)	1.77
FC(F)(F)C(Cl)Br (stereo not drawn)	2.3
Clc1cccc(-c2ccccc2)c1	4.58
O=C(Nc1ccccc1)Nc1ccc(Cl)c(Cl)c1	4.7
COc1ccc([N+](=O)[O-])cn1	1.55
CCCCCCCN	2.57
O=CC(Cl)(Cl)Cl	0.99
CCC(C)N (stereo not drawn)	0.74
OC[C@H]1O[C@@H](Oc2ccc(O)cc2)[C@H](O)[C@@H](O)[C@@H]1O	-1.35

SMILES	logP
CN(C)C(=O)N(c1ccccc1)c1ccccc1	2.8
CCC(=O)C1(c2cccc(OC(=O)C(C)(C)C)c2)CCN(C)CC1	2.59
Nc1ccc(/N=N/c2ccccc2)cc1	3.41
Nc1cn[nH]c1	-1.09
CS(=O)(=O)c1ccc(C(O)C(CO)NC(=O)C(Cl)Cl)cc1 (stereo not drawn)	-0.27
COc1c(O)cc2c(c1OC)-c1ccc(SC)c(=O)cc1C(NC(=O)C(F)(F)F)CC2 (stereo not drawn)	2.61
N#CCc1cccc(Oc2ccccc2)c1	3.03
CC=Cc1c(OC)cc(Cc2cnc(N)nc2N)cc1OCC	2.65
O=C(c1ccccc1)c1cccnc1	1.88
CC(=O)Nc1cccc2nccnc12	1.06
CC1CCCC(C)N1N=O (stereo not drawn)	1.36
CNC(=O)Oc1cccc(C#N)c1	0.97
COCC(C)OC (stereo not drawn)	-0.09
Nc1ccc(C(=O)Oc2ccccc2)c(O)c1	3.15
O=C(O)c1cccc(F)c1	2.15
CC(=O)OCCBr	1.11
CC(=O)Oc1cccc(Cl)c1	2.32
O=NN1CCC(Cl)C(Cl)C1 (stereo not drawn)	1.04
O=c1cc(-c2ccccc2)o[nH]1	2.55
CCNC(=O)NO	-0.76
Clc1cccc(C(Cl)(Cl)Cl)n1	3.41
NC(=O)CCN1CCc2cccc(Cl)c2CC1	1.64
CCc1ccc(S(I)=C(N(C)C)N(C)C)cc1 (stereo not drawn)	0.29
O=C(O)c1ccc(O)cc1O	1.63

From the OPERA property sets (Mansouri et al. 2018)
